What was measured:
Type in all cases: ADME, organism-based
[1] = AUC (0 to 6 hrs) in rat at 3 mg/kg, po; design: time < 6 hr, dose 3 mg/kg, route oral; conditions: plasma
[2] = Bioavailability in rat at 3 mg/kg, po; conditions: in vivo
[3] = Half life in rat at 3 mg/kg, po; design: dose 3 mg/kg, route oral; conditions: in vivo
[4] = AUC in rat at 3 mg/kg, po; design: dose 3 mg/kg, route oral; conditions: plasma
[5] = Plasma clearance in rat at 3 mg/kg, po; design: dose 3 mg/kg, route oral

Structure (SMILES) | AUC(0-t) at 6 h [1] | also measured
Nc1nc2c(cnn2CCN2CCc3ncc(C4CC4)cc3C2)c2nc(-c3ccco3)nn12 | 214 ng·h/mL | –
Nc1nc2c(cnn2CCN2Cc3ccccc3C2)c2nc(-c3ccco3)nn12 | 287 ng·h/mL | –
Nc1nc2c(cnn2CCN2CCc3ncc(Br)cc3C2)c2nc(-c3ccco3)nn12 | 2020 ng·h/mL | –
Nc1nc2c(cnn2CCN2CCc3ncncc3C2)c2nc(-c3ccco3)nn12 | 467 ng·h/mL | –
Cc1cnc2c(c1)CN(CCn1ncc3c1nc(N)n1nc(-c4ccco4)nc31)CC2 | 3490 ng·h/mL | bioavailability [2]: 71%; half-life [3]: 11.3 h; AUC [4]: 7980 ng·h/mL; CL/F [5]: 4.7 mL/min/kg
Nc1nc2c(cnn2CCN2CCc3ncccc3C2)c2nc(-c3ccco3)nn12 | 1790 ng·h/mL | –
Nc1nc2c(cnn2CCN2CCc3nc(C(F)(F)F)ccc3C2)c2nc(-c3ccco3)nn12 | 1240 ng·h/mL | –
Nc1nc2c(cnn2CCN2CCc3ccccc3CC2)c2nc(-c3ccco3)nn12 | 48 ng·h/mL | –
COc1ccc2c(c1)CN(CCn1ncc3c1nc(N)n1nc(-c4ccco4)nc31)C2 | 199 ng·h/mL | –

Continued, in another order:

AUC(0-t) at 6 h [1] | Structure (SMILES) | also measured
103 ng·h/mL | COCCOc1ccc2c(c1)CCN(CCn1ncc3c1nc(N)n1nc(-c4ccco4)nc31)CC2 | –
357 ng·h/mL | COc1ccc2c(c1)CN(CCn1ncc3c1nc(N)n1nc(-c4ccco4)nc31)CC2 | –
477 ng·h/mL | COCCOc1cnc2c(c1)CN(CCn1ncc3c1nc(N)n1nc(-c4ccco4)nc31)CC2 | –
60 ng·h/mL | Nc1nc2c(cnn2CCN2CCc3ccccc3C2)c2nc(-c3ccco3)nn12 | –
31 ng·h/mL | COCCOc1cccc2c1CN(CCn1ncc3c1nc(N)n1nc(-c4ccco4)nc31)CC2 | –
215 ng·h/mL | COCCOc1cccc2c1CN(CCn1ncc3c1nc(N)n1nc(-c4ccco4)nc31)C2 | –
688 ng·h/mL | COc1ccc2c(c1)CCN(CCn1ncc3c1nc(N)n1nc(-c4ccco4)nc31)C2 | –
